Measurements: the supplement of paper PMC11061612

What was measured:
AZD1775 = compound: C=CCn1c(=O)c2cnc(Nc3ccc(N4CCN(C)CC4)cc3)nc2n1-c1cccc(C(C)(C)O)n1 [AZD1775]; conditions: max 3 µM
Outline: (§1)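 Cancer cell lines in 1536-well plates (7.5 μl DMEM/F12 or RPMI, 10% FBS) were held 24 hours at 37°C and 5% CO2 and then dosed for 72 hours at a final DMSO of typically 0.2%. Viability was taken from CellTiter-Glo 2.0 luminescence, scaled between blank-well and DMSO-well means. Curves were fitted as two-parameter logistic models with a non-linear mixed effects model, from which the single-agent IC50 was taken.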

Trametinib = compound: CC(=O)Nc1cccc(-n2c(=O)n(C3CC3)c(=O)c3c(Nc4ccc(I)cc4F)n(C)c(=O)c(C)c32)c1 [Trametinib]; conditions: max 1 µM
Outline: as §1

AZD7648 = compound: Cc1cc2ncnn2cc1Nc1ncc2c(n1)n(C1CCOCC1)c(=O)n2C [AZD7648]; conditions: max 10 µM
Outline: as §1

5-Fluorouracil = compound: O=c1[nH]cc(F)c(=O)[nH]1 [5-Fluorouracil]; conditions: max 20 µM
Outline: as §1

Gemcitabine = compound: Nc1ccn([C@@H]2O[C@H](CO)[C@@H](O)C2(F)F)c(=O)n1 [Gemcitabine]; conditions: max 0.3 µM
Outline: as §1

Etoposide = compound: COc1cc([C@@H]2c3cc4c(cc3[C@@H](O[C@@H]3O[C@@H]5CO[C@@H](C)O[C@H]5[C@H](O)[C@H]3O)[C@H]3COC(=O)[C@H]23)OCO4)cc(OC)c1O [Etoposide]; conditions: max 10 µM
Outline: as §1

AZD5363 = compound: C1CN(CCC1(C(=O)N[C@@H](CCO)C2=CC=C(C=C2)Cl)N)C3=NC=NC4=C3C=CN4 [AZD5363]; conditions: max 10 µM
Outline: as §1

Taselisib = compound: Cc1nc(-c2cn3c(n2)-c2ccc(-c4cnn(C(C)(C)C(N)=O)c4)cc2OCC3)n(C(C)C)n1 [Taselisib]; conditions: max 10 µM
Outline: as §1

Palbociclib = compound: CC(=O)c1c(C)c2cnc(Nc3ccc(N4CCNCC4)cn3)nc2n(C2CCCC2)c1=O [Palbociclib]; conditions: max 10 µM
Outline: as §1

SN-38 = compound: CCc1c2c(nc3ccc(O)cc13)-c1cc3c(c(=O)n1C2)COC(=O)[C@]3(O)CC [SN-38]; conditions: max 0.3 µM
Outline: as §1

SG3199 = compound: CC1=CN2[C@@H](C1)C=NC3=CC(=C(C=C3C2=O)OC)OCCCCCOC4=C(C=C5C(=C4)N=C[C@@H]6CC(=CN6C5=O)C)OC [SG3199]; conditions: max 0.001 µM
Outline: as §1

Gefitinib = compound: COc1cc2ncnc(Nc3ccc(F)c(Cl)c3)c2cc1OCCCN1CCOCC1 [Gefitinib]; conditions: max 10 µM
Outline: as §1

AZD8186 = compound: C[C@@H](Nc1cc(F)cc(F)c1)c1cc(C(=O)N(C)C)cc2c(=O)cc(N3CCOCC3)oc12 [AZD8186]; conditions: max 10 µM
Outline: as §1

Dasatinib = compound: CC1=C(C(=CC=C1)Cl)NC(=O)C2=CN=C(S2)NC3=CC(=NC(=N3)C)N4CCN(CC4)CCO [Dasatinib]; conditions: max 2 µM
Outline: as §1

Doxorubicin = compound: COc1cccc2c1C(=O)c1c(O)c3c(c(O)c1C2=O)C[C@@](O)(C(=O)CO)C[C@@H]3O[C@H]1C[C@H](N)[C@H](O)[C@H](C)O1 [Doxorubicin]; conditions: max 1 µM
Outline: as §1

SRA737 = compound: N#Cc1cnc(Nc2cc(NC[C@H]3CNCCO3)c(C(F)(F)F)cn2)cn1 [SRA737]; conditions: max 10 µM
Outline: as §1

AZD5991 = compound: Cc1c2c(nn1C)CSCc1cc(n(C)n1)CSc1cc(c3ccccc3c1)OCCCc1c(C(=O)O)n(C)c3c-2c(Cl)ccc13 [AZD5991]; conditions: max 1 µM
Outline: as §1

Crizotinib = compound: C[C@@H](Oc1cc(-c2cnn(C3CCNCC3)c2)cnc1N)c1c(Cl)ccc(F)c1Cl [Crizotinib]; conditions: max 10 µM
Outline: as §1

MK-2206 = compound: NC1(c2ccc(-c3nc4ccn5c(=O)[nH]nc5c4cc3-c3ccccc3)cc2)CCC1 [MK-2206]; conditions: max 10 µM
Outline: as §1

AZD2811 = compound: CCN(CCO)CCCOc1ccc2c(Nc3cc(CC(=O)Nc4cccc(F)c4)[nH]n3)ncnc2c1 [AZD2811]; conditions: max 1 µM
Outline: as §1

AZD5153 = compound: COc1nnc2ccc(N3CCC(c4ccc(OCCN5CCN(C)C(=O)[C@H]5C)cc4)CC3)nn12 [AZD5153]; conditions: max 1 µM
Outline: as §1

AZD6738 = compound: C[C@@H]1COCCN1C2=NC(=NC(=C2)C3(CC3)[S@](=N)(=O)C)C4=C5C=CNC5=NC=C4 [AZD6738]; conditions: max 10 µM
Outline: as §1

[1] = compound: O=C(Nc1ccc2[nH]nc(-c3ccncc3)c2c1)[C@@H]1CCN(CC(=O)N2CCN(c3ccc(-c4ncccn4)cc3)CC2)C1; conditions: max 5 µM
Outline: as §1

AZD1390 = compound: CC(C)n1c(=O)n(C)c2cnc3cc(F)c(-c4ccc(OCCCN5CCCCC5)nc4)cc3c21 [AZD1390]; conditions: max 0.3 µM
Outline: as §1

AZD4320 = compound: CN(CC[C@H](CSC1=CC=CC=C1)NC2=C(C=C(C=C2)S(=O)(=O)NC(=O)C3=CC=C(C=C3)N4CCC(CC4)[C@H](C5=CC=CC=C5C6=CC=C(C=C6)Cl)O)S(=O)(=O)C(F)(F)F)CCO [AZD4320]; conditions: max 1 µM
Outline: as §1

Lapatinib = compound: CS(=O)(=O)CCNCc1ccc(-c2ccc3ncnc(Nc4ccc(OCc5cccc(F)c5)c(Cl)c4)c3c2)o1 [Lapatinib]; conditions: max 10 µM
Outline: as §1

Savolitinib = compound: C[C@@H](c1ccc2nccn2c1)n1nnc2ncc(-c3cnn(C)c3)nc21 [Savolitinib]; conditions: max 1 µM
Outline: as §1

AZD0156 = compound: CN(C)CCCOc1ccc(-c2ccc3ncc4c(c3c2)n(C2CCOCC2)c(=O)n4C)cn1 [AZD0156]; conditions: max 3 µM
Outline: as §1

Olaparib = compound: O=C(c1cc(Cc2n[nH]c(=O)c3ccccc23)ccc1F)N1CCN(C(=O)C2CC2)CC1 [Olaparib]; conditions: max 10 µM
Outline: as §1

Carboplatin = compound: C1CC(C1)(C(=O)[O-])C(=O)[O-].N.N.[Pt+2] [Carboplatin]; conditions: max 10 µM
Outline: as §1

Alisertib = compound: COc1cc(Nc2ncc3c(n2)-c2ccc(Cl)cc2C(c2c(F)cccc2OC)=NC3)ccc1C(=O)O [Alisertib]; conditions: max 10 µM
Outline: as §1

Paclitaxel = compound: CC(=O)O[C@H]1C(=O)[C@@]2(C)[C@H]([C@H](OC(=O)c3ccccc3)[C@]3(O)C[C@H](OC(=O)[C@H](O)[C@@H](NC(=O)c4ccccc4)c4ccccc4)C(C)=C1C3(C)C)[C@]1(OC(C)=O)CO[C@@H]1C[C@@H]2O [Paclitaxel]; conditions: max 3 µM
Outline: as §1

Venetoclax = compound: CC1(C)CCC(CN2CCN(c3ccc(C(=O)NS(=O)(=O)c4ccc(NCC5CCOCC5)c([N+](=O)[O-])c4)c(Oc4cnc5[nH]ccc5c4)c3)CC2)=C(c2ccc(Cl)cc2)C1 [Venetoclax]; conditions: max 1 µM
Outline: as §1

Selumetinib = compound: Cn1cnc2c(F)c(Nc3ccc(Br)cc3Cl)c(C(=O)NOCCO)cc21 [Selumetinib]; conditions: max 10 µM
Outline: as §1

Prexasertib = compound: COc1cccc(OCCCN)c1-c1cc(Nc2cnc(C#N)cn2)n[nH]1 [Prexasertib]; conditions: max 1 µM
Outline: as §1

Row | Cell Line | IC50, cell viability 72 h (AZD1775) | IC50, cell viability 72 h (Trametinib) | IC50, cell viability 72 h (AZD7648) | IC50, cell viability 72 h (5-Fluorouracil) | IC50, cell viability 72 h (Gemcitabine) | IC50, cell viability 72 h (Etoposide) | IC50, cell viability 72 h (AZD5363) | IC50, cell viability 72 h (Taselisib) | IC50, cell viability 72 h (Palbociclib) | IC50, cell viability 72 h (SN-38) | IC50, cell viability 72 h (SG3199) | IC50, cell viability 72 h (Gefitinib) | IC50, cell viability 72 h (AZD8186) | IC50, cell viability 72 h (Dasatinib) | IC50, cell viability 72 h (Doxorubicin) | IC50, cell viability 72 h (SRA737) | IC50, cell viability 72 h (AZD5991) | IC50, cell viability 72 h (Crizotinib) | IC50, cell viability 72 h (MK-2206) | IC50, cell viability 72 h (AZD2811) | IC50, cell viability 72 h (AZD5153) | IC50, cell viability 72 h (AZD6738) | IC50, cell viability 72 h [1] | IC50, cell viability 72 h (AZD1390) | IC50, cell viability 72 h (AZD4320) | IC50, cell viability 72 h (Lapatinib) | IC50, cell viability 72 h (Savolitinib) | IC50, cell viability 72 h (AZD0156) | IC50, cell viability 72 h (Olaparib) | IC50, cell viability 72 h (Carboplatin) | IC50, cell viability 72 h (Alisertib) | IC50, cell viability 72 h (Paclitaxel) | IC50, cell viability 72 h (Venetoclax) | IC50, cell viability 72 h (Selumetinib) | IC50, cell viability 72 h (Prexasertib)
1 | NCI-H520 (Squamous Cell Lung Carcinoma) | 1.03 µM | > 1 µM | > 10 µM | > 20 µM | 0.0936 µM | > 10 µM | 4.01 µM | 2.34 µM | 4.77 µM | 0.046 µM | > 0.001 µM | > 10 µM | 4.99 µM | > 2 µM | > 1 µM | > 10 µM | > 1 µM | > 10 µM | 1.87 µM | > 1 µM | 0.923 µM | 7.34 µM | > 5 µM | > 0.3 µM | > 1 µM | > 10 µM | > 1 µM | > 3 µM | > 10 µM | > 10 µM | 8.62 µM | 0.0431 µM | > 1 µM | > 10 µM | 0.0443 µM
2 | NCI-H526 (Small Cell Lung Carcinoma) | 0.642 µM | > 1 µM | > 10 µM | 12.8 µM | 0.251 µM | 0.713 µM | > 10 µM | > 10 µM | > 10 µM | 0.00257 µM | > 0.001 µM | > 10 µM | > 10 µM | > 2 µM | 0.107 µM | > 10 µM | > 1 µM | 7.94 µM | > 10 µM | > 1 µM | 0.0801 µM | 10 µM | > 5 µM | > 0.3 µM | 0.0434 µM | > 10 µM | > 1 µM | > 3 µM | > 10 µM | > 10 µM | 9.42 µM | 0.00908 µM | 0.246 µM | > 10 µM | 0.0838 µM
3 | NCI-H929 (Plasma Cell Myeloma) | 1.06 µM | 0.0329 µM | 2.27 µM | 7.15 µM | 0.0121 µM | 1.25 µM | 0.106 µM | 0.0236 µM | > 10 µM | 0.0131 µM | > 0.001 µM | > 10 µM | 0.728 µM | > 2 µM | 0.548 µM | > 10 µM | 0.0175 µM | 0.982 µM | 0.0699 µM | > 1 µM | 0.0134 µM | 5.41 µM | 0.981 µM | > 0.3 µM | > 1 µM | > 10 µM | > 1 µM | 1.15 µM | > 10 µM | > 10 µM | > 10 µM | 0.00454 µM | > 1 µM | 3.13 µM | 0.179 µM
4 | NCI-H2731 (Mesothelioma) | > 3 µM | > 1 µM | > 10 µM | > 20 µM | > 0.3 µM | > 10 µM | > 10 µM | > 10 µM | > 10 µM | > 0.3 µM | > 0.001 µM | > 10 µM | > 10 µM | > 2 µM | > 1 µM | > 10 µM | > 1 µM | > 10 µM | > 10 µM | > 1 µM | > 1 µM | > 10 µM | > 5 µM | > 0.3 µM | > 1 µM | > 10 µM | > 1 µM | > 3 µM | > 10 µM | > 10 µM | > 10 µM | 1.78 µM | > 1 µM | > 10 µM | > 1 µM
5 | NCI-H3122 (Lung Adenocarcinoma) | > 3 µM | 0.0589 µM | > 10 µM | > 20 µM | 0.032 µM | > 10 µM | > 10 µM | 1.08 µM | 2.58 µM | 0.0177 µM | > 0.001 µM | > 10 µM | > 10 µM | > 2 µM | 0.237 µM | > 10 µM | > 1 µM | 0.323 µM | 7.95 µM | > 1 µM | 0.612 µM | 7.46 µM | 0.958 µM | > 0.3 µM | > 1 µM | > 10 µM | > 1 µM | > 3 µM | > 10 µM | > 10 µM | > 10 µM | 0.00901 µM | > 1 µM | 7.82 µM | 0.315 µM
